Source: patent US8093234B2, “Method of increasing thymic output in HIV-negative patients by treatment with antiretroviral agents” (Mayo Foundation For Medical Education and Research, priority 2005, dated 2012)
“And” between values parts separate entries of the source, which are not always exact repeats. Equal values may be shown once. “Also recorded” adds a separate entry of the source.

Experiments:
[1] = system: thymic derived naïve T-cell numbers in the peripheral blood; assay: TREC analysis (sjTREC/CCR5 real-time PCR) of peripheral blood in HIV-negative volunteers on nelfinavir mono-therapy; assay type: in vivo, human
Procedure: (§1) Following approval by the Mayo Institutional Review Board, peripheral blood was sampled from 46 healthy blood donors older than 18 years of age for baseline TREC analysis. For the separate nelfinavir trial, 15 HIV-negative individuals with no active illness older than 18 years of age were given nelfinavir, 1250 mg orally, twice a day for 21 days. Blood for TREC analysis was obtained before therapy and on days 3, 5, 7, 14, and 21 after starting therapy. At each blood draw, side-effects were monitored and recorded from each subject. Severity of diarrhea was graded as: Grade 0—None; Grade 1—increase of 4 stools/day over pretreatment; Grade 2—increase of 4-6 stools/day, or nocturnal stools; Grade 3—increase of 7 stools/day or incontinence, or dehydration episode requiring parenteral support; Grade 4—episode of hemodynamic collapse requiring intensive care.
TREC Analysis: DNA was isolated from peripheral blood mononuclear cells (PBMC) using an QIAamp Blood Mini DNA Kit (Qiagen) and assessed for signal joint (sj) TREC content relative to genomic CCR5 copies by real-time PCR in a spectroflourometric thermal cycler (ABI PRISM 7700 or 7900, PE Applied Biosystems). SjTREC reactions contained 12.5 pmol primers (forward […] [SEQ ID NO:1]), reverse […] [SEQ ID NO:2]) 3 pmoles TAQMAN probe (FAM-[…]-TAMRA [SEQ ID NO:3]), 1× TAQMAN Universal PCR Master Mix (PE Applied Biosystems), and 50 to 400 ng of template DNA in a total volume of 25 μl. CCR5 reactions contained 12.5 pmol primers (forward […] [SEQ ID NO:4], and reverse […] [SEQ ID NO:5]), 3 pmoles TAQMAN probe (FAM-[…]-TAMRA [SEQ ID NO:6]),1× TAQMAN Universal PCR Master Mix, and 50-400 ng of template of genomic DNA in a total volume of 25 μl. Thermal cycling conditions consisted of a 2-minute incubation at 50° C. and an initial denaturation/activation step at 95° C. for 10 minutes, followed by 40 cycles of 95° C. for 15 seconds and 60° C. for 1 minute in a microplate format. For each plate of reactions, standard curves were generated with 1-100,000 copies of human sjTREC plasmid (provided by Dr. D. Douek, NIH) and human CCR5 plasmid (cloned by RT-PCR into pCI) in order to calculate copies of TREC versus CCR5.
Statistical analysis: Experiments from every figure were performed in duplicate and repeated at least twice. All measurements are presented as means and standard deviations with statistical comparisons made between baseline and day 21 TREC/CCR5 measurements using the Student's t test for paired observations. For FIG. 2, change in baseline to day 21 TREC/CCR5 levels were stratified according to subjects age with 2 subjects <40, 2 subjects 40-65, and 11 subjects >65 years old.

[2] = Side-effect monitoring in the nelfinavir trial in HIV-negative individuals; assay type: in vivo, human
Procedure: as §1

[3] = system: Kaposi's sarcoma; settings: mice implanted with Kaposi's sarcoma; cited from earlier work
[4] = system: adult T-cell leukemia cells; settings: NOD/SCID mice implanted with adult T-cell leukemia cells; cited from earlier work

| Structure (SMILES) | volunteers who did not increase TREC numbers following 21 days ([1]; 15 subjects, 21 days) | volunteers who responded with increases in TREC numbers from baseline to day 21 ([1]; 15 subjects, 21 days) | effect on TREC levels / TREC positive naïve T-cell number ([1]; HIV-negative adults, mono-therapy for 21 days) | median increase in TRECs from baseline to day 21 in responders ([1]; eight responding volunteers, p<0.02) [copies TREC/CCR5] | change between baseline and day 21 TREC/CCR5 levels ([1]; entire cohort analyzed) | Day 21/0 TREC ([1]; individual subjects 1-15, nelfinavir 1250 mg orally twice a day for 21 days) | patients in whom TREC copies/copies CCR5 increased ([1]; of 15 subjects, p<0.02) [patients] | patients in whom TREC copies/copies CCR5 did not change ([1]; of 15 subjects, p=NS) [patients] | change in TREC levels between baseline (day 0) and days 3, 5, 7 or 14 ([1]; paired analysis) | average increase in TREC levels ([1]; subjects 40-65 years) [TREC/CCR5 copies] | average change in TREC levels ([1]; subjects greater than 65 years) [TREC/CCR5 copies] | average increase in TREC levels ([1]; subjects less than 40 years) [TREC/CCR5 copies] | clinical tolerability ([2]; 1250 mg orally twice a day for 21 days) | subjects who completed the 21 days of therapy ([2]; 15 subjects) | subjects who experienced Grade 1 or 2 diarrhea ([2]; six of 15 subjects) [%] | tumor response [3] | tumor growth [4] |
| --- | --- | --- | --- | --- | --- | --- | --- | --- | --- | --- | --- | --- | --- | --- | --- | --- | --- |
| Cc1c(O)cccc1C(=O)N[C@@H](CSc1ccccc1)[C@H](O)CN1C[C@H]2CCCC[C@H]2C[C@H]1C(=O)NC(C)(C)C [nelfinavir] | 47 % of total | 53 % of total | induces an increase in TREC levels in a subset of healthy adults; also recorded: increases TREC positive naïve T-cell number | 1.2 | no change | 0.74 and 1.18 and 0.24 and 1.25 and 1.01 and 0.72 and 1.0 and 1.36 and 1.06 and 2.32 and 1.88 and 0.59 and 0.29 and 0.38 and 0.55 | 8 | 7 | No significant change | 0.80 | 0.89 | 1.2 | clinically well tolerated | all but one subject | 40 |  |  |
| CC(C)c1nc(CN(C)C(=O)N[C@H](C(=O)N[C@@H](Cc2ccccc2)C[C@H](O)[C@H](Cc2ccccc2)NC(=O)OCc2cncs2)C(C)C)cs1 [Ritonavir] |  |  |  |  |  |  |  |  |  |  |  |  |  |  |  | significant tumor regression | reduced tumor growth |
